Laboratory results published in patent publication US7790759B2, “Glycyrrhetinic acid-30-amide derivatives and their use” (Tianjin Institute of Pharmaceutical Research, priority 2005, dated 2010).

Legend:
writhing response = experiment: Analgesic effect: acetic acid-induced writhing response; format: in vivo, ICR mice; settings: 50 mg/kg intragastric; for Writhing occurrence (x ± s): 0.6% acetic acid i.p. 1 h after administration, counted during 15 minutes, n = 10
Experimental: Male or female healthy ICR mice, each weighing 18-22 g, were used. Each mouse was injected intraperitoneally with 0.6% acetic acid in a dose of 0.2 ml one day before the test. The mice with the writhing response occurring in the range of 10-50 times were selected. The selected mice were grouped randomly into model, positive control and test groups based on the occurrence of the writhing response, with 10 animals for each group. The positive group was treated with aspirin in a dose of 50 mg/kg of body weight.
After fasting for at least 12 h, the animals were intragastrically administrated: the animals in model group are administered only with 1% CMCNa in the same amount. 1 h after administration, the mice were intraperitoneally injected with 0.6% acetic acid in a dose of 0.2 ml per animal. After 5 min, the occurrence of the writhing responses for one mouse was recorded during a period of 15 minutes. Based on the occurrence recorded, the inhibition rate of the active ingredient for writhing response was calculated. Inhibition rate=(means of the writhing occurrence for model group−means of the writhing occurrence for test group)/means of writhing occurrence for model group×100%. (3) Cough-prevention

cough = experiment: Cough-prevention: ammonia-induced cough; format: in vivo, ICR mice; settings: for Cough occurrence (x ± sd) / Inhibition rate of cough (%): 50 mg/kg intragastric; for Cough occurrence (x ± sd): ammonia 1 h after administration, observed within 5 min, n = 10; for Inhibition rate of cough (%): versus model group
Experimental: Male or female healthy ICR mice, each weighing 18-22 g, were used. They were grouped randomly into model, positive control and test groups based on body weight, with 10 animals for each group. The positive group was treated by codeine phosphate in a dose of 50 mg/kg of body weight.
After fasting for at least 12 h, the animals were intragastrically administrated: the animals in model group are administered only with 1% CMCNa in the same amount. To start the test, 1 h after administration, the mice were placed in a 500 ml container, into which a cotton ball sucking 0.3 ml of ammonia was added to cause coughing. The occurrence of cough was observed within 5 min. Inhibition rate of cough=(the cough occurrence for model group−the cough occurrence for test group)/the cough occurrence for model group×100%. (4) Aldosterone-like Side Effects

swollen ear model = experiment: Anti-inflammatory effect: xylene-induced swollen ear model; format: in vivo, ICR mice; settings: 40 mg/kg, intragastric, xylene on right ear 30 min after administration; weight ratio swollen ear to normal ear; n 8-10
Experimental: Male or female healthy ICR mice, each weighing 18-20 g, were grouped randomly into model, positive control and test groups based on body weight, with 8-10 animals for each group. The positive group was treated by hydrocortisone in a dose of 40 mg/kg of body weight.
The compound of formula I to be tested was administered intragastrically at a concentration of 2 mg/ml in a 1% CMCNa solution, while a 1% CMCNa solution alone was administered to the model group in the same amount. 30 min after administration, 50 μl of xylene solution was added dropwise into the right ear of each mouse to cause an inflammation reaction. 30 min later, the mice were killed by breaking the cervical vertebrae. Both ears were excised immediately from the mices, and punched in the same position with a puncher having a diameter of 0.6 cm. The obtained ear piece was weighed. For each mouse, the weight ratio of swollen ear to normal ear was regarded as an indication for the degree of swelling. Biostatistical analysis was performed using the Student's t test.

Influenza virus A = experiment: Influenza virus A-infected mice models; format: in vivo; settings: 100 mg/kg
[1] = test system: paracetamol/hepatitis mice models; experiment: Liver protection in paracetamol/hepatitis mice models; settings: 100 mg/kg
[2] = Subacute toxicity within one month (death); format: in vivo; settings: 300 mg/kg of body weight for one week
Experimental: (§1) Three compounds of formula I of the invention were selected to examine their subacute toxicity within one month, with dexamethasone and glycyrrhetinic acid as control. […] Furthermore, the level of aldosterone in blood plasma was determined. The level will decrease in a negative feedback way when an agent having aldosterone-like effects is administrated.

aldosterone = format: in vivo; settings: subacute toxicity study
Experimental: as §1

| SMILES | Writhing occurrence (x ± s) (writhing response) | Inhibition rate of writhing response (%) (writhing response; versus model group) | Cough occurrence (x ± sd) (cough) | Inhibition rate of cough (%) (cough) | Swelling degree of the swollen ear model (%) (x ± sd) (swollen ear model) | other results |
| --- | --- | --- | --- | --- | --- | --- |
| CC1(C(=O)NCc2cc(-c3ccc(O)cc3)no2)CCC2(C)CCC3(C)C(=CC(=O)C4C5(C)CCC(O)C(C)(C)C5CCC43C)C2C1 (stereo not shown) [Compound G1, N-[(3-p-hydroxylphenyl-isoxazol-5-yl)methyl]-glycyrrhetinamide] | 16.33 ± 10.57 | 19.7 | 28.20 ± 15.39 | −1.44 | – | – |
| Cc1ccc(-c2cc(CNC(=O)C3(C)CCC4(C)CCC5(C)C(=CC(=O)C6C7(C)CCC(O)C(C)(C)C7CCC65C)C4C3)on2)cc1 (stereo not shown) [Compound G2, N-[(3-p-methylphenyl-isoxazol-5-yl)methyl]-glycyrrhetinamide] | – | – | – | – | 68.6 ± 29.5 | – |
| CC1(C(=O)NCc2cc(-c3ccc(F)cc3)no2)CCC2(C)CCC3(C)C(=CC(=O)C4C5(C)CCC(O)C(C)(C)C5CCC43C)C2C1 (stereo not shown) [Compound G3, N-[(3-p-fluorophenyl-isoxazol-5-yl)methyl]-glycyrrhetinamide] | – | – | – | – | 60.8 ± 27.9 | – |
| COc1ccccc1-c1cc(CNC(=O)C2(C)CCC3(C)CCC4(C)C(=CC(=O)C5C6(C)CCC(O)C(C)(C)C6CCC54C)C3C2)on1 (stereo not shown) [Compound G6, N-[(3-o-methoxyphenyl-isoxazol-5-yl)methyl]-glycyrrhetinamide] | – | – | – | – | 53.4 ± 35.2 | – |
| Cc1ccc(-c2cc(CNC(=O)[C@@]3(C)CC[C@]4(C)CC[C@]5(C)C(=CCC6[C@@]7(C)CC[C@H](O)C(C)(C)C7CC[C@]65C)[C@@H]4C3)on2)cc1 (stereo partly shown) [DG2, N-[(3-p-methylphenyl-isoxazol-5-yl)methyl]-11-deoxy-glycyrrhetinamide] | – | – | – | – | 80.2 ± 18.8 | – |
| CC1(C(=O)NCc2cc(-c3ccc(F)cc3)no2)CCC2(C)CCC3(C)C(=CCC4C5(C)CCC(O)C(C)(C)C5CCC43C)C2C1 (stereo not shown) [DG3, N-[(3-p-fluorophenyl-isoxazol-5-yl)methyl]-11-deoxy-glycyrrhetinamide] | 18.33 ± 13.56 | 9.8 | 17.70 ± 7.10 | 36.33 | 56.1 ± 28.3 | – |
| CC1(C)[C@@H](O)CC[C@]2(C)[C@H]3CC=C4[C@@H]5C[C@@](C)(C(=O)NCc6cc(-c7ccccc7Cl)no6)CC[C@]5(C)CC[C@@]4(C)[C@]3(C)CC[C@@H]12 [DG4, N-[(3-o-chlorophenyl-isoxazol-5-yl)methyl]-11-deoxy-glycyrrhetinamide] | 6.56 ± 6.19 | 67.8 | 18.80 ± 7.04 | 32.37 | – | Death rate caused by the virus infection (Influenza virus A): decreased |
| COc1ccccc1-c1cc(CNC(=O)C2(C)CCC3(C)CCC4(C)C(=CCC5C6(C)CCC(O)C(C)(C)C6CCC54C)C3C2)on1 (stereo not shown) [DG6, N-[(3-o-methoxyphenyl-isoxazol-5-yl)methyl]-11-deoxy-glycyrrhetinamide] | 8.00 ± 6.48 | 60.7 | 22.60 ± 9.56 | 18.71 | 64.4 ± 29.2 | GPT [1]: decreased |
| Cc1cc(CNC(=O)C2(C)CCC3(C)CCC4(C)C(=CCC5C6(C)CCC(O)C(C)(C)C6CCC54C)C3C2)on1 (stereo not shown) [DG7, N-[(3-methyl-isoxazol-5-yl)methyl]-11-deoxy-glycyrrhetinamide] | 15.78 ± 12.43 | 22.4 | 20.40 ± 14.31 | 26.62 | – | – |
| CC1(C(=O)NCc2cc(-c3cccc(Cl)c3)no2)CCC2(C)CCC3(C)C(=CCC4C5(C)CCC(O)C(C)(C)C5CCC43C)C2C1 (stereo not shown) [DG8, N-[(3-m-chlorophenyl-isoxazol-5-yl)methyl]-11-deoxy-glycyrrhetinamide] | 15.89 ± 16.67 | 21.9 | 17.90 ± 8.21 | 35.61 | – | – |
| COc1ccccc1-c1cc(CNC(=O)[C@@]2(C)CC[C@]3(C)CC[C@]4(C)C(=CC(=O)[C@@H]5[C@@]6(C)CC[C@H](OC(C)=O)C(C)(C)[C@@H]6CC[C@]54C)[C@@H]3C2)on1 [RG1, N-[(3-o-methoxyphenyl-isoxazol-5-yl)methyl]-3-acetoxy-glycyrrhetinamide] | – | – | 17.64 ± 6.34 | 36.55 | – | – |
| CC(=O)Oc1ccccc1C(=O)O [aspirin, reference compound] | 5.44 ± 5.87 | – | – | – | – | inhibition at 50 mg/kg (writhing response; Mus musculus, po, versus model group, read-out: Inhibition rate of writhing response (%)): 73.2% |
| COc1ccc2c3c1O[C@H]1[C@@H](O)C=C[C@H]4[C@@H](C2)N(C)CC[C@@]341 [codeine phosphate, reference compound] | – | – | 8.40 ± 8.95 | – | – | inhibition at 50 mg/kg (cough; Mus musculus, po, read-out: Inhibition rate of cough (%)): 69.8% |
| C[C@@H]1C[C@H]2[C@@H]3CCC4=CC(=O)C=C[C@]4(C)[C@@]3(F)[C@@H](O)C[C@]2(C)[C@@]1(O)C(=O)CO [dexamethasone] | – | – | – | – | – | Death in subacute toxicity test [2]: All the animals died |
| CC1(C)[C@@H](O)CC[C@]2(C)[C@H]3C(=O)C=C4[C@@H]5C[C@@](C)(C(=O)O)CC[C@]5(C)CC[C@@]4(C)[C@]3(C)CC[C@@H]12 [glycyrrhetinic acid] | – | – | – | – | – | Aldosterone level in blood plasma (ng/ml) (x ± sd) (aldosterone; 300 mg/kg, n = 8): 68.3 ± 12.5 ng/mL; Aldosterone-like effects (decrease of plasma aldosterone by negative feedback) (aldosterone): confirmed the aldosterone-like effects; Death in subacute toxicity test [2]: no death was observed |
| C[C@]12CCC(=O)C=C1CC[C@@H]1[C@@H]2[C@@H](O)C[C@@]2(C)[C@H]1CC[C@]2(O)C(=O)CO [hydrocortisone, reference compound] | – | – | – | – | 55.7 ± 35.4 | – |
